Measurements: patent US20230126893A1, “[(1,4,5-TRISUBSTITUTED-1H-PYRAZOL-3-YL)SULFANYL]ACETIC ACID DERIVATIVES, SALTS THEREOF, AND USE THEREOF AS ACTIVE HERBICIDAL INGREDIENTS” (BAYER AKTIENGESELLSCHAFT, priority 2020, published 2023)

Tested on: Digitaria sanguinalis
Assay: Pre-emergence herbicidal effect against DIGSA
Type: in vivo
Details: 1280 g/ha, visual score after 3 weeks, 100% = plants have died, 0% = like control plants
How it was run: (§1)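 Percent herbicidal activity (100% = dead, 0% = as control) was rated by eye 3 weeks post-application in greenhouse pots of sandy loam, with treatment sprayed onto the covering soil before emergence.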

SMILES | Pre-emergence action against DIGSA [%]
CCOC(=O)CSc1nn(-c2cc(F)ccc2F)c(-c2ccc(F)c(F)c2)c1Br [Example I-013] | 100

Tested on: Tripleurospermum inodorum
Assay: Pre-emergence herbicidal effect against MATIN
Type: in vivo
Details: 1280 g/ha, visual score after 3 weeks, 100% = plants have died, 0% = like control plants
How it was run: as §1

SMILES | Pre-emergence action against MATIN [%]
CCOC(=O)CSc1nn(-c2cc(F)ccc2F)c(-c2ccc(F)c(F)c2)c1Br [Example I-013] | 100

Tested on: Bassia scoparia
Assay: Pre-emergence herbicidal effect against KCHSC
Type: in vivo
Details: 1280 g/ha, visual score after 3 weeks, 100% = plants have died, 0% = like control plants
Source text: 1. Pre-emergence herbicidal effect and crop plant compatibility Seeds of monocotyledonous and dicotyledonous weed plants and crop plants are laid out in sandy loam soil in wood-fibre pots and covered with soil. The compounds of the invention, formulated in the form of wettable powders (WP) or as emulsion concentrates (EC), are then applied to the surface of the covering soil as aqueous suspension or emulsion at a water application rate equating to 600 to 800 L/ha with addition of 0.2% wetting agent. After the treatment, the pots are placed in a greenhouse and kept under good growth conditions for the trial plants. The damage to the test plants is scored visually after a test period of 3 weeks by comparison with untreated controls (herbicidal activity in percent (%): 100% activity=the plants have died, 0% activity=like control plants). [table]

SMILES | Pre-emergence action against KCHSC [%]
CCOC(=O)CSc1nn(-c2cc(F)ccc2F)c(-c2ccc(F)c(F)c2)c1Br [Example I-013] | 90

Tested on: Tripleurospermum inodorum
Assay: Post-emergence herbicidal effect against MATIN
Type: in vivo
Details: 1280 g/ha, visual assessment about 3 weeks after treatment, 100% = plants have died, 0% = like control plants
How it was run: (§2)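 Percent herbicidal effect, judged visually against untreated plants about 3 weeks after treatment, where 100% means dead plants. Treatment was a foliar spray of WP or EC formulations (600 to 800 l/ha water, 0.2% wetting agent) on one-leaf-stage plants raised in sandy loam.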

SMILES | Post-emergence action against MATIN [%]
CCOC(=O)CSc1nn(-c2cc(F)ccc2F)c(-c2ccc(F)c(F)c2)c1Br [Example I-013] | 100

Tested on: Amaranthus retroflexus
Assay: Post-emergence herbicidal effect against AMARE
Type: in vivo
Details: 1280 g/ha, visual assessment about 3 weeks after treatment, 100% = plants have died, 0% = like control plants
Procedure: [table] 2. Post-emergence herbicidal effect and crop plant compatibility Seeds of monocotyledonous and dicotyledonous weed and crop plants are laid out in sandy loam soil in wood-fibre pots, covered with soil and cultivated in a greenhouse under good growth conditions. 2 to 3 weeks after sowing, the test plants are treated at the one-leaf stage. The compounds of the invention, formulated in the form of wettable powders (WP) or as emulsion concentrates (EC), are then sprayed onto the green parts of the plants as aqueous suspension or emulsion at a water application rate equating to 600 to 800 l/ha with addition of 0.2% wetting agent. After the test plants have been left to stand in the greenhouse under optimal growth conditions for about 3 weeks, the action of the preparations is assessed visually in comparison to untreated controls (herbicidal action in percent (%): 100% activity=the plants have died, 0% activity=like control plants).

SMILES | Post-emergence action against AMARE [%]
CCOC(=O)CSc1nn(-c2cc(F)ccc2F)c(-c2ccc(F)c(F)c2)c1Br [Example I-013] | 100

Tested on: Veronica persica
Assay: Post-emergence herbicidal effect against VERPE
Type: in vivo
Details: 1280 g/ha, visual assessment about 3 weeks after treatment, 100% = plants have died, 0% = like control plants
How it was run: as §2

SMILES | Post-emergence action against VERPE [%]
CCOC(=O)CSc1nn(-c2cc(F)ccc2F)c(-c2ccc(F)c(F)c2)c1Br [Example I-013] | 100

Tested on: Alopecurus myosuroides
Assay: Pre-emergence herbicidal effect against ALOMY
Type: in vivo
Details: 1280 g/ha, visual score after 3 weeks, 100% = plants have died, 0% = like control plants
How it was run: as §1

SMILES | Pre-emergence action against ALOMY [%]
CCOC(=O)CSc1nn(-c2cc(F)ccc2F)c(-c2ccc(F)c(F)c2)c1Br [Example I-013] | 100

Tested on: Echinochloa crus-galli
Assay: Pre-emergence herbicidal effect against ECHCG
Type: in vivo
Details: 1280 g/ha, visual score after 3 weeks, 100% = plants have died, 0% = like control plants
How it was run: as §1

SMILES | Pre-emergence action against ECHCG [%]
CCOC(=O)CSc1nn(-c2cc(F)ccc2F)c(-c2ccc(F)c(F)c2)c1Br [Example I-013] | 100

Tested on: Abutylon threophrasti
Assay: Post-emergence herbicidal effect against ABUTH
Type: in vivo
Details: 1280 g/ha, visual assessment about 3 weeks after treatment, 100% = plants have died, 0% = like control plants
How it was run: as §2

SMILES | Post-emergence action against ABUTH [%]
CCOC(=O)CSc1nn(-c2cc(F)ccc2F)c(-c2ccc(F)c(F)c2)c1Br [Example I-013] | 90

Tested on: Setaria viridis
Assay: Pre-emergence herbicidal effect against SETVI
Type: in vivo
Details: 1280 g/ha, visual score after 3 weeks, 100% = plants have died, 0% = like control plants
How it was run: as §1

SMILES | Pre-emergence action against SETVI [%]
CCOC(=O)CSc1nn(-c2cc(F)ccc2F)c(-c2ccc(F)c(F)c2)c1Br [Example I-013] | 100

Tested on: Veronica persica
Assay: Pre-emergence herbicidal effect against VERPE
Type: in vivo
Details: 1280 g/ha, visual score after 3 weeks, 100% = plants have died, 0% = like control plants
How it was run: as §1

SMILES | Pre-emergence action against VERPE [%]
CCOC(=O)CSc1nn(-c2cc(F)ccc2F)c(-c2ccc(F)c(F)c2)c1Br [Example I-013] | 100

Tested on: Lolium rigidum
Assay: Pre-emergence herbicidal effect against LOLRI
Type: in vivo
Details: 1280 g/ha, visual score after 3 weeks, 100% = plants have died, 0% = like control plants
How it was run: as §1

SMILES | Pre-emergence action against LOLRI [%]
CCOC(=O)CSc1nn(-c2cc(F)ccc2F)c(-c2ccc(F)c(F)c2)c1Br [Example I-013] | 100

Tested on: Poa annua
Assay: Post-emergence herbicidal effect against POAAN
Type: in vivo
Details: 1280 g/ha, visual assessment about 3 weeks after treatment, 100% = plants have died, 0% = like control plants
How it was run: as §2

SMILES | Post-emergence action against POAAN [%]
CCOC(=O)CSc1nn(-c2cc(F)ccc2F)c(-c2ccc(F)c(F)c2)c1Br [Example I-013] | 100

Tested on: Bassia scoparia
Assay: Post-emergence herbicidal effect against KCHSC
Type: in vivo
Details: 1280 g/ha, visual assessment about 3 weeks after treatment, 100% = plants have died, 0% = like control plants
How it was run: as §2

SMILES | Post-emergence action against KCHSC [%]
CCOC(=O)CSc1nn(-c2cc(F)ccc2F)c(-c2ccc(F)c(F)c2)c1Br [Example I-013] | 90

Tested on: Stellaria media
Assay: Pre-emergence herbicidal effect against STEME
Type: in vivo
Details: 1280 g/ha, visual score after 3 weeks, 100% = plants have died, 0% = like control plants
How it was run: as §1

SMILES | Pre-emergence action against STEME [%]
CCOC(=O)CSc1nn(-c2cc(F)ccc2F)c(-c2ccc(F)c(F)c2)c1Br [Example I-013] | 100

Tested on: Amaranthus retroflexus
Assay: Pre-emergence herbicidal effect against AMARE
Type: in vivo
Details: 1280 g/ha, visual score after 3 weeks, 100% = plants have died, 0% = like control plants
How it was run: as §1

SMILES | Pre-emergence action against AMARE [%]
CCOC(=O)CSc1nn(-c2cc(F)ccc2F)c(-c2ccc(F)c(F)c2)c1Br [Example I-013] | 100

Tested on: Alopecurus myosuroides
Assay: Post-emergence herbicidal effect against ALOMY
Type: in vivo
Details: 1280 g/ha, visual score after about 3 weeks, 100% = plants have died, 0% = like control plants
How it was run: as §2

SMILES | Post-emergence action against ALOMY [%]
CCOC(=O)CSc1nn(-c2cc(F)ccc2F)c(-c2ccc(F)c(F)c2)c1Br [Example I-013] | 100

Tested on: Stellaria media
Assay: Post-emergence herbicidal effect against STEME
Type: in vivo
Details: 1280 g/ha, visual assessment about 3 weeks after treatment, 100% = plants have died, 0% = like control plants
How it was run: as §2

SMILES | Post-emergence action against STEME [%]
CCOC(=O)CSc1nn(-c2cc(F)ccc2F)c(-c2ccc(F)c(F)c2)c1Br [Example I-013] | 100

Tested on: Poa annua
Assay: Pre-emergence herbicidal effect against POAAN
Type: in vivo
Details: 1280 g/ha, visual score after 3 weeks, 100% = plants have died, 0% = like control plants
How it was run: as §1

SMILES | Pre-emergence action against POAAN [%]
CCOC(=O)CSc1nn(-c2cc(F)ccc2F)c(-c2ccc(F)c(F)c2)c1Br [Example I-013] | 100

Tested on: Digitaria sanguinalis
Assay: Post-emergence herbicidal effect against DIGSA
Type: in vivo
Details: 1280 g/ha, visual score after about 3 weeks, 100% = plants have died, 0% = like control plants
How it was run: as §2

SMILES | Post-emergence action against DIGSA [%]
CCOC(=O)CSc1nn(-c2cc(F)ccc2F)c(-c2ccc(F)c(F)c2)c1Br [Example I-013] | 100
